Measured values from ChEMBL document CHEMBL1201862, “PubChem BioAssay data set” (2004).
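Compound exposure: 48 hours, 5 concentrations, 96-well plates. At the GI50, growth is halved.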 The source made the active and inactive calls. No stated cut-off is given here; in the data, active = GI50 up to about 1.1 µM and inactive = higher.

Assays:
Assay in all cases: NCI-60 cell line screen, 48 h
[1] = tested on: A498
[2] = tested on: A549
[3] = tested on: DLD-1
[4] = tested on: HCT-15
[5] = tested on: HOP-62
[6] = tested on: KM12
[7] = tested on: OVCAR-4
[8] = tested on: OVCAR-5
[9] = tested on: RXF 393
[10] = tested on: SF-539
[11] = tested on: SN12C
[12] = tested on: SNB-19
[13] = tested on: SNB-75
[14] = tested on: TK-10
[15] = tested on: U-251
[16] = tested on: UACC-62
[17] = tested on: CCRF-CEM

SMILES	GI50 [1]	GI50 [2]	GI50 [3]	GI50 [4] [µM]	GI50 [5]	GI50 [6]	GI50 [7]	GI50 [8]	GI50 [9]	GI50 [10]	GI50 [11]	GI50 [12]	GI50 [13]	GI50 [14]	GI50 [15]	GI50 [16]	GI50 [17]
Clc1ccc(CCc2ccncn2)c(Cl)c1	86.5 µM (inactive)	> 100 µM (inactive)	> 100 µM (inactive)	79.6	> 100 µM (inactive)	63 µM (inactive)	> 100 µM (inactive)	> 100 µM (inactive)	27 µM (inactive)	> 100 µM (inactive)	> 100 µM (inactive)	35.6 µM (inactive)	68.5 µM (inactive)	> 100 µM (inactive)	41.5 µM (inactive)	53.2 µM (inactive)	
COc1ccc(CC/N=C2\CCC(C(=O)NCCc3ccc(OC)c(OC)c3)N2)cc1OC (stereo not given)	> 100 µM (inactive)	> 100 µM (inactive)	> 100 µM (inactive)	> 100	> 100 µM (inactive)	> 100 µM (inactive)	> 100 µM (inactive)	> 100 µM (inactive)			> 100 µM (inactive)	> 100 µM (inactive)	> 100 µM (inactive)	> 100 µM (inactive)	> 100 µM (inactive)	> 100 µM (inactive)	> 100 µM (inactive)
C/C(=N/N(C=O)C[n+]1ccccc1)C(CN(CC(C)C)CC(C)C)C(=O)Nc1ccc(C)cc1C (stereo not given)	33.1 µM (inactive)	> 100 µM (inactive)	> 100 µM (inactive)		> 100 µM (inactive)	84.1 µM (inactive)	> 100 µM (inactive)	63.1 µM (inactive)	42.9 µM (inactive)	> 100 µM (inactive)	> 100 µM (inactive)	67.9 µM (inactive)		42.4 µM (inactive)		79.6 µM (inactive)	> 100 µM (inactive)
CCOc1ccccc1/N=N/c1c(-c2ccccc2)nn(C(=O)CC(=O)Nc2cccc(Cl)c2)c1-c1ccccc1		54 µM (inactive)	20.4 µM (inactive)		72.9 µM (inactive)	31.8 µM (inactive)	23.1 µM (inactive)	50.8 µM (inactive)	95.7 µM (inactive)	62.1 µM (inactive)	40.4 µM (inactive)	68.9 µM (inactive)	33.8 µM (inactive)	> 100 µM (inactive)	39.5 µM (inactive)	39.6 µM (inactive)	37.8 µM (inactive)
Cc1nc2ccccc2c(=O)n1/N=C(\N=N\c1cc(Cl)ccc1Cl)c1ccc(N(C)C)cc1	60.4 µM (inactive)	> 100 µM (inactive)	62.7 µM (inactive)	> 100	26.9 µM (inactive)				27.2 µM (inactive)	33 µM (inactive)	58.6 µM (inactive)	33.3 µM (inactive)		88.3 µM (inactive)	38.1 µM (inactive)	34.5 µM (inactive)	52.7 µM (inactive)
COc1ccc(/C(=C/n2ccnc2)C(=O)c2ccc(OC)c(OC)c2)cc1	> 100 µM (inactive)	> 100 µM (inactive)	> 100 µM (inactive)	> 100	> 100 µM (inactive)	> 100 µM (inactive)	> 100 µM (inactive)	> 100 µM (inactive)		> 100 µM (inactive)	> 100 µM (inactive)	> 100 µM (inactive)	> 100 µM (inactive)	> 100 µM (inactive)	> 100 µM (inactive)	39.3 µM (inactive)	> 100 µM (inactive)
O=C1c2cccc([N+](=O)[O-])c2C(=O)c2nccnc21	5.32 µM (inactive)	1.66 µM (inactive)	2.84 µM (inactive)	1.47			1.42 µM (inactive)	3.81 µM (inactive)	1.95 µM (inactive)	1.47 µM (inactive)	1.66 µM (inactive)	1.69 µM (inactive)	1.07 µM (active)	2.06 µM (inactive)	1.4 µM (inactive)	1.32 µM (inactive)	2.54 µM (inactive)
Clc1ccc2c(Cl)ncnc2c1I		> 100 µM (inactive)	> 100 µM (inactive)	> 100	> 100 µM (inactive)	> 100 µM (inactive)	> 100 µM (inactive)	> 100 µM (inactive)	42 µM (inactive)		> 100 µM (inactive)	> 100 µM (inactive)	14.6 µM (inactive)	> 100 µM (inactive)	> 100 µM (inactive)	63.7 µM (inactive)	> 10 µM (inactive)
CC(=O)N(/N=C\c1ccc([N+](=O)[O-])cc1)c1ccccc1	> 100 µM (inactive)	> 100 µM (inactive)	> 100 µM (inactive)	> 100	> 100 µM (inactive)	> 100 µM (inactive)	> 100 µM (inactive)	> 100 µM (inactive)		> 100 µM (inactive)	> 100 µM (inactive)	> 100 µM (inactive)	48.3 µM (inactive)	> 100 µM (inactive)	> 100 µM (inactive)	> 100 µM (inactive)	> 100 µM (inactive)
